Legend:
[1] = system: TGF-beta induced SMAD signaling; test: RDSR (RD SMAD reporter) Cellular Reporter Assay; assay type: cell-based; conditions: Homo sapiens; 200 pg/ml rhTGF-beta1, 24 h; read-out: RD-SMAD reporter activity
Outline: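 Human rhabdomyosarcoma RD cells stably carrying an SBE-driven luc2P luciferase reporter. Inhibition of SMAD signaling was quantified from ONE-Glo luminescence.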

[2] = Longitudinal PK/PD analysis in A549 xenograft mouse model (plasma and tumor PK); assay type: in vivo; conditions: 75 mg/kg single oral dose
Protocol: In this study, p-SMAD2 (Ser465/Ser467) and a housekeeping gene (GAPDH) were measured at six timepoints from zero (established using vehicle-treated animals) up to twenty-four hours post dose for a single drug dose of seventy-five milligrams per kilogram per subject (three subjects per dosing group).
For this study, xenografts were prepared and implanted in mice as follows. At five weeks of age, female athymic nude mice (purchased from Charles River) were injected with approximately 3.2 million A549 cells (ATCC, CCL-185). Cells were harvested and resuspended in plain RPMI media (no phenol red added) and Matrigel (Corning 356237) at a one-to-one ratio, and two hundred-microliters of the cell suspension were injected into the right hind flank of each mouse. Tumors were measured every three days by caliper, and as tumors reached an average of ninety millimeters cubed, mice were randomized in groups of three. Each of the test compounds (Ex-10 and Ex-11) was resuspended in 1-methyl-2-pyrrolidinone (Sigma, 494496) (10%) plus 20% Solutol (Sigma 42966) in water (90%). The drug suspensions were sonicated for fifteen minutes to generate a fine particle suspension before being given to the test subjects. Subjects were dosed (per oral gavage) with the suspension. A vehicle control group with three mice was used to establish the baseline and timepoint zero of phospho-SMAD-2 in the tumor xenograft. The test compounds were administered to the respective subject groups at seventy-five milligrams per kilogram. Samples were obtained post administration of test compounds at 20 minutes, one hour, two hours, four hours, and twenty-four hours. Tumors were harvested, snap frozen and stored at negative eighty degrees Celsius until further processing. Plasma was collected from all animals by collecting whole blood via cardiac puncture, followed by centrifugation in tubes containing EDTA (BD, microtainer tubes, 365974). A group of three mice receiving vehicle only served as the zero timepoint for both drug groups. The phospho-SMAD-2 levels were determined using the Bio-Plex Pro™ Phospho-Smad2 (Ser465/Ser467) Set (BioRad 171V50019M). The phospho-SMAD-2 levels were normalized to GAPDH (MILLIPLEX MAP GAPDH Total Magnetic Bead MAPmate™, Millipore 46-667MAG) levels from each sample. All analytes were analyzed in a multiplex fashion with the Bio-Plex Pro Cell Signaling Reagent Kit (BioRad 171304006M). Frozen tumor samples (fifteen to thirty milligrams) were lysed in 100 μl lysis buffer, processed in a bead mill tube, and centrifuged. The resulting lysate was used at 1:50 dilution for the assay according to the manufacturer's instructions. Bead suspension was analyzed using the Luminex system (MAGPIX).

SMILES	IC50 [1] [nM]	drug concentration in plasma and tumor over time [2]	drug in plasma and tumor at 24 hours post drug administration [2]	time of maximum drug concentration in plasma and tumor [2]
Cc1cccc2c(Nc3ccnc(Nc4ccc(N5CCOCC5)cc4)n3)cnnc12 [EX-10, N4-(8-methylcinnolin-4-yl)-N2-(4-morpholino-phenyl)-pyrimidine-2,4-diamine]	< 100	spiked 20 minutes to 1-hour post drug administration and stayed high up to 4 hours post drug administration	cleared out of the system completely	
Cc1cccc2c(Nc3ccnc(Nc4cccc(N5CCOCC5)c4)n3)cnnc12 [EX-11, N4-(8-methylcinnolin-4-yl)-N2-(3-morpholinophenyl)pyrimidine-2,4-diamine]	< 100		cleared out of the system	around 4 hours

Reference: patent US11746103B2, “ALK-5 inhibitors and uses thereof” (Sumitomo Pharma Oncology, Inc., priority 2020, dated 2023)
